According to US10822337B2, “TGF-β inhibitorC” (Rigel Pharmaceuticals, Inc., priority 2015, dated 2020):

Assays:
[1] = tested on: TGF-β signaling (TGF-β pSMAD, MPC-11); test: AlphaScreen SureFire SMAD3 (p-Ser423/425) assay, inhibition of TGF-β signaling; assay type: cell-based; conditions: Mus musculus, p-SMAD-3 (Ser423/425) in cell lysate after TGF-β stimulation
Description: (§1) Example 2: AlphaScreen® SureFire® SMAD3 (p-Ser423/425) Assay
(§2) The p-SMAD-3 (Ser423/425) SureFire® assay has been designed to measure the phosphorylation of endogenous cellular p-SMAD-3 (Ser423/425) in cell lysates and is a system for the screening of both modulators of receptor activation (e.g. agonists and antagonists) as well as agents acting intracellularly, such as small molecule inhibitors of upstream events. The assay will measure p-SMAD-3 (Ser423/425) activation by either cloned or endogenous receptors, and can be applied to primary cells.
(§3) 1× Lysis buffer: 1 ml of 5× Lysis buffer was diluted with 4 ml of sterile water. After dilution, excess 1× Lysis buffer can be frozen and thawed up to 5 times without loss in activity.
(§4) P-SMAD-3 (Ser423/425) SureFire® Assay Protocols
(§5) Step A: Preparation of Buffers
(§6) Activation buffer: The buffer was warmed slowly to 37° C. and gently mixed to re-suspend. Activation buffer can be stored at room temperature with no loss in activity.
(§7) Reaction buffer: The buffer was kept at 4° C. while in use.
(§8) AlphaScreen® Protein A IgG Kit: The kit was stored at 4° C. in the dark.
(§9) Reaction buffer+Activation buffer+AlphaScreen® Acceptor beads: Reaction buffer (40 parts), Activation Buffer (10 parts) and Acceptor beads (1 part) were mixed and the mixture was stored at room temperature and used the same day. Mixture was added to 384-well plates; excess mixturewas discarded.
(§10) Dilution buffer+AlphaScreen® Donor beads: Dilution buffer (20 parts) and Donor beads (1 part) were mixed and the mixture was stored at room temperature and used the same day. Excess mixture was discarded.
(§11) Assay control samples: After reconstitution in 250 μl of water, lysates were at −20° C. in single use aliquots.
(§12) Step B: Preparation of Samples and Cells
(§13) 96-well Assay Protocol for 293FT and RMS13 adherent cells can be carried out manually or in high throughput with liquid handling robots.
(§14) The cells (80 μL of cells for 96 well plates) were plated in collagen coated tissue culture plates in RPMI or FreeStyle medium (Invitrogen) and incubated overnight. For manual analysis, 6 plates for GDF8, 6 plates for TGFβ, and optionally 6 plates for Alk5ca(ALKS constitutively active) were used.
(§15) The compound dilution plates were prepared as follows: 12 μL of DMSO was transferred into first column of 96-well plate, and 16 μL of DMSO was transferred into columns 2-12 of the 96-well plate. 12 μL of compound solution was transferred into first column of the DMSO-containing 96-well plate. Three-fold dilution was performed up to column 10 of the DMSO-containing 96-well plate.
(§16) Step C: Treatment and Analysis
(§17) The plate containing cells were treated with compounds for about 10 minutes, and then ligand was added. GDF8 or TGFb was added to plates to stimulate. 293FL cells were stimulatedfor 90 minutes at 37° C.; and RMS13 cells were stimulated for 60 minutes at 37° C. The medium was then removed from the cells, and 1× Lysis Buffer (about 25 μL) was added and the plate was gently agitated on plate shaker for 5-10 minutes.
(§18) The lysate (5 μL) was then placed into 384-well shallow plates avoiding the generation of bubbles. To this, the Reaction Buffer+Activation Buffer+AlphaScreen® Acceptor beadsmixture (5 μL) was added. The plate was sealed with adhesive cover and shielded from light (e.g., with metal foil), and agitated gently on plate shaker for 2 hours at room temperature.
(§19) Dilution buffer+AlphaScreen® Donor beads (2 μL) was then added, and the plate was intubated on the plate shaker for an additional 1½ hours. After completion, the plate was read on Synergy-4 or Enspire plate reader, using AlphaScreen® pSMAD3® settings.
(§20) Representative results for inhibition of GDF8 (data=GDF pSMAD (MPC11) (μM)) and TGF-β (data=TGF-β pSMAD (MPC-11) (μM)) signaling are shown in Table 1: […]

[2] = tested on: GDF8 signaling (GDF pSMAD, MPC11); test: AlphaScreen SureFire SMAD3 (p-Ser423/425) assay, inhibition of GDF8 signaling; assay type: cell-based; conditions: Mus musculus, MPC-11, p-SMAD-3 (Ser423/425) in cell lysate after GDF8 stimulation
Description: as §1, §2, §3, §4, §5, §6, §7, §8, §9, §10, §11, §12, §13, §14, §15, §16, §17, §18, §19, §20

| SMILES | IC50 [1] [µM] | IC50 [2] [µM] |
| --- | --- | --- |
| Fc1ccc(-c2nn3c(c2-c2ccc4nccnc4c2)CCC3)cc1F [Compound 89, 6-(2-(3,4-Difluorophenyl)-5,6-dihydro-4H-pyrrolo[1,2-b]pyrazol-3-yl)quinoxaline] | 1.62 | 0.418 |
| FC(F)(F)c1cccc(-c2nn3c(c2-c2ccc4ncsc4c2)OCC3)c1 [Compound 62, 7-(Benzo[d]thiazol-6-yl)-6-(3-trifluoromethylphenyl)-2,3-dihydropyrazolo[5,1-b]oxazole] | 0.787 | 0.272 |
| Fc1ccc(-c2nn3c(c2-c2ccc4nccn4c2)CCC3)c(F)c1F [Compound 130, 6-(2-(2,3,4-Trifluoropehnyl)-5,6-dihydro-4H-pyrrolo[1,2-b]pyrazol-3-yl)imidazo[1,2-a]pyridine] | 1.4 | 0.319 |
| Fc1ccc(-c2nn3c(c2-c2ccc4ncccc4c2)CCC3)cc1Cl [Compound 146, 6-(2-(3-Chloro-4-fluorophenyl)-5,6-dihydro-4H-pyrrolo[1,2-b]pyrazol-3-yl)quinoline] | 2.73 | 1.04 |
| Fc1ccc(-c2nn3c(c2-c2ccc4cn[nH]c4c2)CCC3)c(F)c1F [Compound 129, 6-(2-(2,3,4-Trifluorophenyl)-5,6-dihydro-4H-pyrrolo[1,2-b]pyrazol-3-yl)-1H-indazole] | 1.64 | 0.346 |
| COc1ccc(F)c(-c2nn3c(c2-c2ccc4nccn4c2)CCC3)c1 [Compound 164, 6-(2-(2-Fluoro-5-methoxyphenyl)-5,6-dihydro-4H-pyrrolo[1,2-b]pyrazol-3-yl)imidazo[1,2-a]pyridine] | 1.31 | 0.57 |
| Cc1cccc(-c2nn3c(c2-c2ccc4c(cnn4C)c2)CCC3)c1 [Compound 10, 1-Methyl-5-(2-(m-tolyl)-5,6-dihydro-4H-pyrrolo[1,2-b]pyrazol-3-yl)-1H-indazole] | 2.59 | 0.643 |
| Fc1ccc(-c2nn3c(c2-c2ccc4cn[nH]c4c2)CCC3)c(F)c1 [Compound 92, 6-(2-(2,4-Difluorophenyl)-5,6-dihydro-4H-pyrrolo[1,2-b]pyrazol-3-yl)-1H-indazole] | 1.1 | 0.228 |
| COc1ccc(-c2nn3c(c2-c2ccc4[nH]ncc4c2)CCC3)cc1 [Compound 98, 5-(2-(4-Methoxyphenyl)-5,6-dihydro-4H-pyrrolo[1,2-b]pyrazol-3-yl)-1H-indazole] | 0.984 | 0.295 |
| COc1cccc(-c2nn3c(c2-c2ccc4nccn4c2)OCC3)c1 [Compound 73, 7-(Imidazo[1,2-a]pyridin-6-yl)-6-(3-methoxyphenyl)-2,3-dihydropyrazolo[5,1-b]oxazole] | 1.49 | 0.329 |
| Fc1ccc(-c2nn3c(c2-c2ccc4nccnc4c2)CCC3)cc1 [Compound 53, 6-(2-(4-Fluorophenyl)-5,6-dihydro-4H-pyrrolo[1,2-b]pyrazol-3-yl)quinoxaline] | 2.34 | 0.395 |
| Fc1cccc(-c2nn3c(c2-c2ccc4[nH]ncc4c2)CCC3)c1 [Compound 77, 5-(2-(3-Fluorophenyl)-5,6-dihydro-4H-pyrrolo[1,2-b]pyrazol-3-yl)-1H-indazole] | 1.34 | 0.336 |
| Fc1ccc(-c2nn3c(c2-c2ccc4nccnc4c2)CCC3)c(F)c1F [Compound 132, 6-(2-(2,3,4-Trifluorophenyl)-5,6-dihydro-4H-pyrrolo[1,2-b]pyrazol-3-yl)quinoxaline] | 2.33 | 0.909 |
| Fc1ccccc1-c1nn2c(c1-c1ccc3nccnc3c1)CCC2 [Compound 136, 6-(2-(2-Fluorophenyl)-5,6-dihydro-4H-pyrrolo[1,2-b]pyrazol-3-yl)quinoxaline] | 2.36 | 0.613 |
| Fc1cc(F)c(-c2nn3c(c2-c2ccc4ncccc4c2)CCC3)cc1Cl [Compound 190, 6-(2-(5-Chloro-2,4-difluorophenyl)-5,6-dihydro-4H-pyrrolo[1,2-b]pyrazol-3-yl)quinoline] | 0.872 | 0.272 |
| Fc1c(Cl)cccc1-c1nn2c(c1-c1ccc3ncsc3c1)CCC2 [Compound 140, 6-(2-(3-Chloro-2-fluorophenyl)-5,6-dihydro-4H-pyrrolo[1,2-b]pyrazol-3-yl)benzo[d]thiazole] | 0.842 | 0.504 |

Molecules with a lower IC50 [1], results first:

| IC50 [1] [µM] | IC50 [2] [µM] | SMILES |
| --- | --- | --- |
| 0.417 | 0.196 | Cn1cnc2ccc(-c3c(-c4cccc(F)c4)nn4c3CCC4)cc21 [Compound 79, 6-(2-(3-Fluorophenyl)-5,6-dihydro-4H-pyrrolo[1,2-b]pyrazol-3-yl)-1-methyl-1H-benzo[d]imidazole] |
| 0.375 | 0.122 | Cc1cc(-c2nn3c(c2-c2ccc4ncsc4c2)CCC3)ccc1F [Compound 17, 6-(2-(4-Fluoro-3-methylphenyl)-5,6-dihydro-4H-pyrrolo[1,2-b]pyrazol-3-yl)benzo[d]thiazole] |
| 0.311 | 0.0984 | Fc1ccc(-c2nn3c(c2-c2ccc4ncnn4c2)CCC3)cc1Cl [Compound 148, 6-(2-(3-Chloro-4-fluorophenyl)-5,6-dihydro-4H-pyrrolo[1,2-b]pyrazol-3-yl)-[1,2,4]triazolo[1,5-a]pyridine] |
| 0.251 | 0.106 | Cn1cnc2ccc(-c3c(-c4ccc(F)c(F)c4)nn4c3CCC4)cc21 [Compound 85, 6-(2-(3,4-Difluorophenyl)-5,6-dihydro-4H-pyrrolo[1,2-b]pyrazol-3-yl)-1-methyl-1H-benzo[d]imidazole] |
| 0.232 | 0.13 | Fc1cc(F)c(-c2nn3c(c2-c2ccc4ncsc4c2)CCC3)cc1Cl [Compound 189, 6-(2-(5-Chloro-2,4-difluorophenyl)-5,6-dihydro-4H-pyrrolo[1,2-b]pyrazol-3-yl)benzo[d]thiazole] |
| 0.222 | 0.155 | FC(F)(F)Oc1cccc(-c2nn3c(c2-c2ccc4nccnc4c2)CCC3)c1 [Compound 126, 6-(2-(3-Trifluoromethoxyphenyl)-5,6-dihydro-4H-pyrrolo[1,2-b]pyrazol-3-yl)quinoxaline] |
| 0.214 | 0.0686 | Cn1cnc2ccc(-c3c(-c4cccc(C(F)(F)F)c4)nn4c3OCC4)cc21 [Compound 60, 7-(1-Methyl-1H-benzo[d]imidazol-6-yl)-6-(3-trifluoromethylphenyl)-1,2-dihydropyrazolo[5,1-b]oxazole] |
| 0.152 | 0.0347 | Clc1cccc(-c2nn3c(c2-c2ccc4ncnn4c2)CCC3)c1 [Compound 107, 6-(2-(3-Chlorophenyl)-5,6-dihydro-4H-pyrrolo[1,2-b]pyrazol-3-yl)-[1,2,4]triazolo[1,5-a]pyridine] |
| 0.083 | 0.0266 | Cc1cccc(-c2nn3c(c2-c2ccc4ncnn4c2)CCC3)c1 [Compound 104, 6-(2-(m-Tolyl)-5,6-dihydro-4H-pyrrolo[1,2-b]pyrazol-3-yl)-[1,2,4]triazolo[1,5-a]pyridine] |
| 0.0459 | 0.0537 | FC(F)(F)Oc1cccc(-c2nn3c(c2-c2ccc4nccn4c2)CCC3)c1 [Compound 124, 6-(2-(3-Trifluoromethoxyphenyl)-5,6-dihydro-4H-pyrrolo[1,2-b]pyrazol-3-yl)imidazo[1,2-a]pyridine] |
| 0.0421 | 0.0212 | Cn1cnc2ccc(-c3c(-c4cccc(C(F)(F)F)c4)nn4c3CCC4)cc21 [Compound 33, 1-Methyl-6-(2-(3-trifluoromethylphenyl)-5,6-dihydro-4H-pyrrolo[1,2-b]pyrazol-3-yl)-1H-benzo[d]imidazole] |
